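Each compound was tested at five concentrations against cells in 96-well plates for 48 hours. GI50 = concentration required for 50% inhibition of growth.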 The source made the active and inactive calls. Rule as the data show it: active = GI50 up to about 1.1 µM and inactive = higher.
Experiments:
Test in all cases: NCI anticancer screen, dose series, 48 h
[1] = system: HL-60
[2] = system: Hs-578T
[3] = system: UACC-62
[4] = system: DU-145
[5] = system: COLO 205
[6] = system: SF-295
[7] = system: K562
[8] = system: SK-MEL-5
[9] = system: KM12
[10] = system: SF-539
[11] = system: HOP-92
[12] = system: SW-620
[13] = system: U-251
[14] = system: 786-0
[15] = system: HCT-15
[16] = system: HOP-62
[17] = system: HCT-116
[18] = system: HCC 2998
[19] = system: NCI/ADR-RES
[20] = system: DMS-273

SMILES | GI50 [1] | GI50 [2] | GI50 [3] | GI50 [4] | GI50 [5] | GI50 [6] | GI50 [7] | GI50 [8] | GI50 [9] | GI50 [10] | GI50 [11] | GI50 [12] | GI50 [13] | GI50 [14] | GI50 [15] [µM] | GI50 [16] | GI50 [17] | GI50 [18] | GI50 [19] | GI50 [20]
CCc1nc(N)nc(N)c1-c1ccc(N2CCNCC2)c([N+](=O)[O-])c1 | 4.59 µM (inactive) | 18.5 µM (inactive) | 6.08 µM (inactive) | 29.2 µM (inactive) | 15.3 µM (inactive) | 7.96 µM (inactive) | 0.718 µM (active) | 8.59 µM (inactive) | 12 µM (inactive) | 10.6 µM (inactive) | 27.4 µM (inactive) | 5.4 µM (inactive) | 6.03 µM (inactive) | 5.2 µM (inactive) | 35.7 | 19.4 µM (inactive) | 1.77 µM (inactive) | 11.5 µM (inactive) | > 100 µM (inactive) | –
CC1=C(O)C(=O)C=C2C1=CC=C1[C@@]2(C)CC[C@@]2(C)[C@@H]3C[C@](C)(C(=O)O)CC[C@]3(C)CC[C@]12C [CELASTROL] | 0.0173 µM (active) | 0.0427 µM (active) | 0.0237 µM (active) | 0.0675 µM (active) | 0.0166 µM (active) | 0.194 µM (active) | 0.0201 µM (active) | 0.07 µM (active) | 0.169 µM (active) | 0.0811 µM (active) | 0.0101 µM (active) | 0.0199 µM (active) | 0.0298 µM (active) | 0.0147 µM (active) | 0.0113 | 0.237 µM (active) | 0.0221 µM (active) | 0.0306 µM (active) | 0.0255 µM (active) | –
CCCCCCCCCCCCCCCCNc1ccn(C2CC(O)C(COC(c3ccccc3)(c3ccccc3)c3ccc(OC)cc3)O2)c(=O)n1 (centres undefined) | > 100 µM (inactive) | > 100 µM (inactive) | > 100 µM (inactive) | > 100 µM (inactive) | > 100 µM (inactive) | > 100 µM (inactive) | > 100 µM (inactive) | > 100 µM (inactive) | > 100 µM (inactive) | > 100 µM (inactive) | > 100 µM (inactive) | > 100 µM (inactive) | 64.1 µM (inactive) | > 100 µM (inactive) | > 100 | > 100 µM (inactive) | 93.5 µM (inactive) | 83.6 µM (inactive) | > 100 µM (inactive) | –
CCOC(=O)Cc1nc2c(O)ncnc2n1C1OC(COC(C)=O)C(OC(C)=O)C1OC(C)=O (centres undefined) | > 100 µM (inactive) | > 100 µM (inactive) | > 100 µM (inactive) | > 100 µM (inactive) | > 100 µM (inactive) | > 100 µM (inactive) | > 100 µM (inactive) | > 100 µM (inactive) | > 100 µM (inactive) | > 100 µM (inactive) | > 100 µM (inactive) | > 100 µM (inactive) | > 100 µM (inactive) | > 100 µM (inactive) | > 100 | > 100 µM (inactive) | > 100 µM (inactive) | > 100 µM (inactive) | > 100 µM (inactive) | –
COC(=O)c1sc2c(c1C(=O)OC)/C(=N/C(C)(C)C)S/C2=N\C(C)(C)C | 13.6 µM (inactive) | 25.7 µM (inactive) | 17 µM (inactive) | 15.5 µM (inactive) | 17.4 µM (inactive) | 19.2 µM (inactive) | 18.5 µM (inactive) | 14.8 µM (inactive) | 16.3 µM (inactive) | 16.6 µM (inactive) | 18.7 µM (inactive) | 17.9 µM (inactive) | 17.1 µM (inactive) | 15 µM (inactive) | 17.2 | 19.6 µM (inactive) | 15.6 µM (inactive) | 14.8 µM (inactive) | 19.8 µM (inactive) | –
COC(=O)C(=O)C(/C(=N/N)C(=O)Nc1ccccc1C(N)=O)c1nc2ccc([N+](=O)[O-])cc2nc1O (centres undefined) | > 100 µM (inactive) | – | > 100 µM (inactive) | – | > 100 µM (inactive) | > 100 µM (inactive) | > 100 µM (inactive) | > 100 µM (inactive) | > 100 µM (inactive) | > 100 µM (inactive) | – | > 100 µM (inactive) | > 100 µM (inactive) | > 100 µM (inactive) | > 100 | > 100 µM (inactive) | > 100 µM (inactive) | > 100 µM (inactive) | – | > 100 µM (inactive)
Cc1c2c(C(N)=O)nccc2c(C)c2c1c1ccccc1n2Cc1ccccc1 | 23.3 µM (inactive) | 6.07 µM (inactive) | 60.4 µM (inactive) | 27.7 µM (inactive) | > 10 µM (inactive) | 10.8 µM (inactive) | 22.7 µM (inactive) | 34.8 µM (inactive) | 21.6 µM (inactive) | 19.1 µM (inactive) | 4.93 µM (inactive) | 17.2 µM (inactive) | 9.04 µM (inactive) | 3.86 µM (inactive) | 16 | 6.38 µM (inactive) | 10 µM (inactive) | 26.4 µM (inactive) | 9.75 µM (inactive) | –
Nc1nc2c(ncn2CCOC(c2ccccc2)P(=O)(O)O)c(=O)[nH]1 (centres undefined) | > 100 µM (inactive) | – | > 100 µM (inactive) | – | > 100 µM (inactive) | > 100 µM (inactive) | – | > 100 µM (inactive) | > 100 µM (inactive) | > 100 µM (inactive) | – | > 100 µM (inactive) | 1.09 µM (active) | > 100 µM (inactive) | > 100 | – | > 100 µM (inactive) | > 100 µM (inactive) | – | > 100 µM (inactive)

From ChEMBL document CHEMBL1201862, “PubChem BioAssay data set” (2004)
